# According to patent publication US11643691B2, “Predictive biomarkers for cancer immunotherapy and methods of using same” (Duke University, priority 2018, dated 2023):
# How the values were obtained:
# CD4+FoxP3+ Treg cells = assay: In vitro Treg cell assay (conditioned DCs with naive CD4+ T cells); type: cell-based, mice; conditions: for DC-mediated Treg cell differentiation in vitro: treated DCs co-cultured with naive CD4+ T cells
# Description: (§1) Dendritic Cell Conditioning: DCs were treated with Wnt3a (100 ng/mL), Wnt5a (200 ng/mL), LPS (1 μg/mL), 1-MT (1 mM), 2DG (1 mM), or ETO (100 μM), 2-DG(2-deoxy-d-glucose, 1 mM), Oligomycin (1 μM), succinylacetone (250 μM), or vehicle control either for 24 or 48 hrs prior to their use in both in vitro and in vivo experiments.
# Treg Cell Assays: For in vivo Treg cell assays, DCs (C57, H-2b) were pre-treated for 48 hours and delivered by intradermal injection into the footpad of Foxp3-mRFP mice. Draining inguinal and popliteal lymph nodes were resected 5 days later and analyzed for CD4+Foxp3+ Treg cells. For in vitro Treg cell assays, DCs (Balb/c, H-2d) were pre-treated for either 24 or 48 hrs, and re-plated at a 1:3 DC:T-cell ratio with purified allogeneic naive Foxp3-mRFP(H-2b) CD44loCD62LhiCD4+ Tcells. These co-cultures were incubated for 6 days and quantitated for CD4+FoxP3+ Treg cells by flow cytometry.
# [1] = system: CD8+ T cell proliferation; assay: T cell proliferation assay (CellTrace Violet dilution, OT-1 splenocytes with conditioned DCs); type: cell-based, mice; conditions: DCs pre-treated, LPS stimulated
# Description: T Cell Proliferation Assay: Splenocytes of OT-1 mice (H-2b) were isolated and stained with CellTrace Violet (ThermoFisher). Preconditioned DCs were loaded with ovalbumin peptide SIINFEKL, and co-cultured at a DC:splenocyte ratio of 40,000:120,000 cells for 72 hrs. CD8+ T cell proliferation was measured by the dilution of Cell Trace Violet dye by flow cytometry.
# DCs [2] = assay: Extracellular acidification rate (ECAR), Seahorse XFe24 flux analysis of DCs; type: cell-based, Murine
# Description: as §1
# (§2) Cellular Energy Metabolism Analysis: DC energy metabolism was measured using the XFe24 extracellular flux analyzer (Seahorse Bioscience), with the glycolysis stress test kit and the mitochondrial stress test kit as previously described (Everts et al., 2014, Zhao and Klimecki, 2015). For experiments involving LPS injection, DCs were plated in XFe24 plates (200,000/well in 500p1) and treated with LPS for 48 hours prior to XF analysis. DCs were washed and analyzed in XF media (RPMI without sodium bicarbonate, 10 mM glucose, 1% FBS, 2 mM L-glutamine). ECAR was analyzed in real-time with or without LPS stimulation. For experiments involving BrafV600EPten−/− cell line-derived conditioned media (CM), collected CM was concentrated and desalted with an Amicon Ultra 30K filter according to manufacturer's recommendations (Milipore). Final concentrate was further washed with XF media 3 times, added to DCs immediately prior to OCR analysis. For standard ECAR analysis, XF media (without glucose) was used to wash cells prior to the assay. A final concentration of 10 mM glucose, 1 μM oligomycin, 50 mM 2-DG(sigma) were injected through XFe24 port A-C. For standard OCR analysis, XF media (with 10 mM glucose) was used to wash cells, a final concentration of 1 μM oligomycin, 1.5 μM FCCP (fluoro-carbonyl cyanide phenylhydrazone), 100 nM rotenone, and 1 μM of antimycin-A (Sigma) were injected through XFe24 port A-C.
# [3] = system: syngeneic BRAF^V600EPTEN^−/− melanomas; assay: Syngeneic melanoma study with NLRP3i and anti-PD-1 ab; type: in vivo
# Description: (A) Treatment of syngeneic BRAF^V600EPTEN^−/− melanomas with IgG isotype control ab (200 μg ip every 3 days), NLRP3i (MCC950 10 μg ip every 3 days), anti-PD-1 ab (200 μg ip every 3 days), or both NLRP3i and anti-PD-1 ab combination therapy (n=8). (B) Gr-MDSC flow cytometry analysis of resected BRAF^V600EPTEN^−/− melanomas following treatment with IgG isotype control ab, NLRP3i, anti-PD-1 ab, or both NLRP3i and anti-PD-1 ab combination therapy (n=4). top, representative flow cytometry dot plot. (C) CD8^+ T cell flow cytometry analysis of resected BRAF^V600EPTEN^−/− melanomas following treatment with IgG isotype control ab, NLRP3i, anti-PD-1 ab, or both NLRP3i and anti-PD-1 ab combination therapy (n=4). All data is mean±SEM. *P<0.05.
# As depicted in FIG. 21A, NLRP3 inhibition can be combined with a […] (e.g. PD-1 inhibitor) to augment the anti-tumor effect of the PD-1 inhibitor therapy.
# DCs [4] = assay: Oxygen consumption rate (OCR) / OXPHOS, Seahorse XFe24 flux analysis of murine DCs; type: cell-based; conditions: DCs pre-treated
# Description: as §1
# as §2, with “A final concentration of 10 mM glucose, 1 μM oligomycin, 50 mM 2-DG(sigma) were injected through XFe24 port A-C. For standard OCR analysis, XF media (with 10 mM glucose) was used to wash cells, a final concentration of 1 μM oligomycin, 1.5 μM FCCP (fluoro-carbonyl cyanide phenylhydrazone), 100 nM rotenone, and 1 μM of antimycin-A (Sigma) were injected through XFe24 port A-C.” left out
# DCs [5] = assay: qRT-PCR / qPCR array / immunoblot gene expression in DCs; type: cell-based, Murine
# Description: Dendritic Cell Conditioning: DCs were treated with Wnt3a (100 ng/mL), Wnt5a (200 ng/mL), LPS (1 μg/mL), 1-MT (1 mM), 2DG (1 mM), or ETO (100 μM), 2-DG(2-deoxy-d-glucose, 1 mM), Oligomycin (1 μM), succinylacetone (250 μM), […]
# Antibodies, Immunoprecipitation, and Immunoblot Analysis: Primary antibodies including CPT1A (Cell signaling), PPAR-γ (Santa Cruz Biotechnology), β-catenin, β-actin (Millipore), p-AMPK(T172)/AMPK (Cell signaling), p-AKT(T308)/Akt (Cell Signaling) were used at 1:1000. Secondary antibodies including goat anti-rabbit IgG-HRP (Millipore) and goat anti-mouse IgG-HRP (Millipore) were used at 1:5000. Cells were lysed in Laemmli sample buffer after treatment and subjected to SDS-polyacrylamide gel electrophoresis and immunoblot analysis. For immunoprecipitation, cells were lysed in radio immunoprecipitation assay (RIPA) buffer [10 mM sodium phosphate (pH 8.0), 150 mM NaCl, 1% Triton X-100, 1% sodium deoxycholate, and 0.1% SDS in the presence of 1 mM DTT, 1 mM phenylmethylsulfonylfluoride, and a protease inhibitor cocktail (Sigma)], precleared with protein A beads, and then incubated with 1 μg of antibody against β-catenin or isotype control IgG with protein A-agarose beads on a rotator overnight at 4° C. After 3 washes with RIPA buffer, immunoprecipitated complexes were eluted in sample buffer by boiling and subjected to immunoblot analysis. Immunoblots were visualized by chemiluminescence substrate (ThermoFisher) and imaged by a ChemiDoc XRSplus system (BioRad).
# RNA Isolation, RT-qPCR, qPCR Array: Total RNA was isolated by RNeasy Plus Mini Kit(Qiagen). RNA(500 ng) were used in cDNA Synthesis (iScript, BioRad). Quantification of mRNA for genes involved in PPARγ signaling was performed using Mouse PrimePCR PPAR Array according to the manufacturer's protocol (BioRad). Real-time PCR was performed using an ABI7500 Real-Time PCR system (Life Technologies). Data analysis utilized the PrimePCR Analysis Software (BioRad). Conventional qPCR was performed using validated primers, and SsoAdvanced Universal SYBR Green Super mix (BioRad) or Taqman probes (Applied Biosystems) for heme synthesis enzymes.
# DCs [6] = assay: PpIX flow cytometry analysis and hemin colorimetric assay; type: cell-based, Murine
# Description: IDO enzymatic assay and Hemin assay: DC IDO enzyme activity was measured by the conversion of L-tryptophan to L-kynurenine in conditioned media by HPLC (Pallotta et al., 2011). Intracellular hemin was measured using a colorimetric assay kit (BioVision).
# PpIX Analysis: DCs were terminally incubated in the presence of 1 mM δ-aminolevulinic acid (ALA) for 4 hrs. Intracellular PpIX was analyzed by flow cytometry as previously described (Hryhorenko et al., 1998).
molecule,measurement,setting,value
"O=CC[C@@H](O)[C@H](O)[C@H](O)CO [2-DG, 2-Deoxy-D-glucose, reference compound]",DC-mediated Treg cell differentiation in vitro,CD4+FoxP3+ Treg cells,enhanced Treg cell differentiation in vitro
same,LPS-induced DC-mediated antigen-specific T cell proliferation,[1],suppresses LPS-induced DC-mediated antigen-specific T cell proliferation
"NC(=O)c1ncn([C@@H]2O[C@H](CO)[C@@H](O)[C@H]2O)c1N [AICAR, reference compound]",LPS-induced glycolytic surge (ECAR),DCs [2]; DCs pre-treated,antagonize the glycolytic surge required for DC maturation
CC(C)(O)c1coc(S(=O)(=O)NC(=O)Nc2c3c(cc4c2CCC4)CCC3)c1 [MCC950],efficacy of anti-PD-1 ab immunotherapy,[3]; NLRP3i added to anti-PD-1 ab,Enhances the Efficacy of Anti-PD-1 Ab Immunotherapy
same,Gr-MDSC recruitment (Ly6G+ Gr-MDSCs),[3]; flow cytometry of resected melanomas,Suppresses Gr-MDSC Recruitment
"Oc1nc(-c2ccc(C(F)(F)F)cc2)nc2c1CSCC2 [XAV939, reference compound]",glycolysis in DCs (ECAR),DCs [2],promoted glycolysis in DCs
"CC[C@H]1/C=C/C=C/C[C@@H](C)[C@H](O)[C@@](C)(O)C(=O)[C@@H](C)[C@H](O)[C@@H](C)C(=O)[C@@H](C)[C@H](O)[C@@H](C)/C=C/C(=O)O[C@@H]2[C@H](C)[C@H](CC1)O[C@]1(CC[C@H](C)[C@H](C[C@@H](C)O)O1)[C@H]2C [oligomycin, Oligomycin]",DC-mediated Treg cell differentiation in vitro,CD4+FoxP3+ Treg cells,eliminated these Treg cell populations
"CC(=O)CC(=O)CCC(=O)O [succinylacetone, 4,6-Dioxoheptanoic acid]",ability of Wnt5a-conditioned DCs to drive Treg cell differentiation in vitro,CD4+FoxP3+ Treg cells; Wnt5a plus inhibitor,significantly abrogated the ability of Wnt5a-stimulated DCs to promote Treg cell generation
Wnt3a,glycolysis in DCs (ECAR),DCs [2],no changes
same,OXPHOS in DCs (OCR),DCs [4],no changes
same,DC-mediated Treg cell differentiation in vitro,CD4+FoxP3+ Treg cells,failed to condition DCs to promote Treg cell differentiation
same,expression of Alas1 and further enzymes of PpIX synthesis,DCs [5]; qRT-PCR,not
same,PPAR-γ (Pparg) and CPT1A (Cpt1a) expression,"DCs [5]; real-time qPCR and immunoblot, murine and human DCs for rWnt5a",failed to induce expression of both PPAR-γ and CPT1A in DCs
same,DC concentrations of PpIX and hemin,DCs [6],failed to enhance PpIX synthesis in DCs
